The source of these data is US20240317809A1, “Engineered Antimicrobial Peptides and Usage Thereof” (University of Pittsburgh-Of the Commonwealth System of …, priority 2021, published 2024).

Several values for one entry are separate records, joined by “and”; a condition that tells them apart may be missing. Identical values can stand only once. Peptide text beside a SMILES is read from it.

Data set [1] concerns S. aureus. In words: MIC, CLSI protocol, planktonic ESKAPE pathogens. It counts as cell-based, Staphylococcus aureus. As to conditions: N=4. As for the experimental part: (§1) Standard Clinical and Laboratory Standards Institute (CLSI) protocol was used to measure the minimum inhibitory concentration (MIC) against each organism. Biofilm model: Implant material was prepared from 0.6 mm diameter stainless steel Kirschner wire and plated at 0.5×10^6 CFU/ml. Mature biofilm developed over 48 hours, wires were washed, and then treated with 1 mg/mL WLBU-2 (SEQ ID: 10) in PBS (pH 7.4) for 5, 15, and 30 minutes. Quantitative culture (colony forming unit, CFU) analysis was then completed.
(§2) ESKAPE pathogens were selected from a large clinical library of MDR and non-MDR organisms (n>100 organism). […] At 15 minutes, organisms had greater than a 3 log reduction in biofilm mass (E. faecium: 3 log 10; S. aureus: 5 log 10; K. pneumoniae 6 log 10; A. baumannii 5 log 10; P. aeruginosa 8 log 10; E. cloacae 7 log 10; E. coli 5 log 10).

Data set [2] concerns bacterial burden. The data set can be described thus: Survival study with rabbit PJI model. It counts as in vivo. As to conditions: for survival rates of rabbits as a function of days post-infection: observed up to 14 days (Group 4: 28 days). As to the method: In the following Examples 1-5, the administered WLBU-2 formulations were prepared as described in this paragraph. Exemplary pharmaceutical formulations comprising WLBU-2 were prepared at concentrations of 0.5 mg/mL and 1.0 mg/mL in vehicle (dPBS), by formulating under aseptic conditions. WLBU-2 was added while mixing to approximately 90% of volume with vehicle, and mixed until the solution was clear. The solution was adjusted to pH 7.4 using a 1% NaOH solution. dPBS was added quantity sufficient to final volume. The final pH of the solution was read and recorded.
This example illustrates the antibacterial activity an exemplary formulation of WLBU-2, beta lactam antibiotic, and in combination in reducing CFU in vivo with varying concentrations and time of exposure.
A bone tunnel in the tibial canal was created using a drill with a 1.2 mm or 1.6 mm tungsten carbide drill bit. The bone tunnel was then dried and treated to simulate acute human PJI following primary arthroplasty. A Kirschner wire implant was placed in the bone tunnel and the wound closed. Prior to closure of the superficial skin layer, 0.1 mL of 2×10^6 planktonic bacteria (CFU/rabbit) in saline was injected into the joint space. A closure was performed, and a biofilm was allowed to become established over a period of 2 days.
In each group, the joint space was reopened and treated with I&D at 2 days post-infection. Group 1 received neither cefazolin nor WLBU-2. Group 2 received cefazolin but not WLBU-2. Group 3 received WLBU-2 but not the cefazolin. Group 4 received both cefazolin and WLBU-2 treatment. Where applicable, cefazolin was delivered subcutaneously at 10 mg/kg BID for 5 days. Where applicable, WLBU-2 was delivered with 2 ml of WLBU-2 at 1 mg/ml with exposure of 15 minutes. […] When an animal was sick or needed to be euthanized, the implant and a part of the tibia was collected postmortem and CFU analysis was performed. All surviving animals (except for Group 4) were euthanized on day 14 and the implant and tibia were collected most mortem.

Data set [3] deals with A. baumannii. In words: MIC, CLSI protocol, planktonic ESKAPE pathogens. The class given is cell-based, Acinetobacter baumannii. As to conditions: N=24. As to the method:
as §1, §2

Data set [4] relates to E. cloacae. In words: MIC, CLSI protocol, planktonic ESKAPE pathogens. It counts as cell-based. The conditions noted are these: N=2. As for the experimental part: as §1, §2
Data set [5] concerns E. coli. In words: MIC, CLSI protocol, planktonic ESKAPE pathogens. The class given is cell-based. The conditions noted are these: N=8. As for the experimental part: as §1, §2
Data set [6] concerns K. pneumoniae. The data set can be described thus: MIC, CLSI protocol, planktonic ESKAPE pathogens. It counts as cell-based, Klebsiella pneumoniae. As to conditions: N=8. As for the experimental part: as §1, §2
In data set [7] the test system is P. aeruginosa. The data set can be described thus: MIC, CLSI protocol, planktonic ESKAPE pathogens. It counts as cell-based, Pseudomonas aeruginosa. As to conditions: N=20. As to the method: as §1, §2
The nature of data set [8]: Local or systemic toxicity in animal models. The class given is in vivo.
The test system of data set [9] is S. caprae. The data set can be described thus: Human patient knee explant study (Example 5), ex vivo CFU analysis. It counts as cell-based. The conditions noted are these: treated vs untreated explant of same patient, 1 mg/mL, 15 minutes. As to the method: (§3) Patients diagnosed with chronic PJI were prospectively enrolled (n=17). All patients met the diagnosis of PJI as defined by the 2018 International Consensus Meeting criteria. The implant was first washed with 50 ml Dulbecco's PBS (dPBS) and submerged ex vivo in an expected clinical exposure of 1 mg/mL WLBU-2 (SEQ ID: 10) in Dulbecco's PBS (dPBS) adjusted to pH 7.4 for 15 minutes. After treatment, the sample was washed with 50 mL of dPBS and sonicated in PBS containing 1% Tween 20 for 5 minutes. After sonication, 100 microliters of the implant sonication fluid was serially diluted, and plated for quantitative culture (CFU analysis). The remaining explanted implant from the same patient served as a control and was processed similarly but without exposure to WLBU-2 (SEQ ID: 10).

Data set [10] concerns S. aureus (MSSA). Described as above. It counts as cell-based. As to conditions: treated vs untreated explant of same patient, 1 mg/mL, 15 minutes. As for the experimental part:
as §3

Data set [11] deals with Haemophilus parainfluenzae. Described as above. The class given is cell-based. The conditions noted are these: treated vs untreated explant of same patient, 1 mg/mL, 15 minutes. As for the experimental part: as §3
In data set [12] the test system is E. faecalis. The description is as above. The class given is cell-based. The conditions noted are these: treated vs untreated explant of same patient, 1 mg/mL, 15 minutes. As to the method:
as §3

Data set [13] has as its system S. dysgalactiae. Described as above. It counts as cell-based. As to conditions: treated vs untreated explant of same patient, 1 mg/mL, 15 minutes. As for the experimental part:
as §3

In data set [14] the test system is S. aureus (MRSA). The data set is described as above. As to conditions: treated vs untreated explant of same patient, 1 mg/mL, 15 minutes. The class given is cell-based. As for the experimental part:
as §3

Data set [15] deals with S. hemolyticus. The data set is described as above. The class given is cell-based. The conditions noted are these: treated vs untreated explant of same patient, 1 mg/mL, 15 minutes. As to the method: as §3
The subject of data set [16] is E. coli. The description is as above. The class given is cell-based. As to conditions: treated vs untreated explant of same patient, 1 mg/mL, 15 minutes. As to the method:
as §3

For data set [17], the system named is gram-positive and gram-negative bacteria on infected prostheses. In words: Human patient knee explant study (Example 5), ex vivo CFU analysis, all implants. It counts as cell-based. The conditions noted are these: 1 mg/mL in dPBS pH 7.4, 15 minutes; vs untreated implant of same patient. As to the method:
as §3

Setting [18] is: cefazolin 10 mg/kg sc BID 5 days and/or WLBU-2 2 ml at 1 mg/ml 15 minutes, vs untreated Group 1.
Setting [19] is: cefazolin 10 mg/kg sc BID 5 days and/or WLBU-2 2 ml at 1 mg/ml 15 minutes, vs untreated Group 1, listed as cefazolin.

For `CN[C@H](CC(C)C)C(=O)N[C@H]1C(=O)N[C@@H](CC(N)=O)C(=O)N[C@H]2C(=O)N[C@H]3C(=O)N[C@H](C(=O)N[C@H](C(=O)O)c4cc(O)cc(O)c4-c4cc3ccc4O)[C@H](O)c3ccc(c(Cl)c3)Oc3cc2cc(c3O[C@@H]2O[C@H](CO)[C@@H](O)[C@H](O)[C@H]2O[C@H]2C[C@](C)(N)[C@H](O)[C@H](C)O2)Oc2ccc(cc2Cl)[C@H]1O` [VAN, vancomycin], in data set [1], the “minimum inhibitory concentration (MIC)” value came out at 1.

Regarding `Cc1nnc(SCC2=C(C(=O)O)N3C(=O)[C@@H](NC(=O)Cn4cnnn4)[C@H]3SC2)s1` [Cefazolin], the “body weight as a function of days post infection” value in data set [2] (I&D 2 days post-infection, cefazolin 10 mg/kg sc BID 5 days and/or WLBU-2 2 ml at 1 mg/ml 15 minutes) was “No significance”. For the same compound, in data set [2] (setting [18]), the “bacterial burden of collected implants (CFU analysis), reduction” value was “significantly lower bacterial burden”; the “bacterial burden of collected tibia (bone CFU analysis), reduction” value is recorded as 2.6 log; the “total CFU (implant and bone), reduction in total bacterial burden” value is listed as “Significant reductions in total bacterial burden”. Besides, in data set [2] (setting [19]), the “bacterial burden of collected tibia (bone CFU analysis), reduction” value is given as “significantly lower bacterial burden”; the “total CFU (implant and bone), reduction in total bacterial burden” value is given as “significantly lower bacterial burden”. For the same compound, the “survival rates of rabbits as a function of days post-infection” value in data set [2] (vs untreated Group 1) is “improved survival in comparison to Group 1”. The “survival rates of rabbits as a function of days post-infection” value in data set [2] (vs untreated Group 1, listed as cefazolin) is given as “second-best survival rates”.

Take `CN(C)c1cc(NC(=O)CNC(C)(C)C)c(O)c2c1C[C@H]1C[C@H]3[C@H](N(C)C)C(O)=C(C(N)=O)C(=O)[C@@]3(O)C(O)=C1C2=O` [TIG, tigecycline]: the “minimum inhibitory concentration (MIC)” value in data set [3] is listed as 1-16; in data set [4], 0.5-2; in data set [5], “.25-0.5”; in [6] it was 0.5-2.

On to colistin, for which the “minimum inhibitory concentration (MIC)” value in data set [7] is listed as “.12-2^”; in data set [4], “.06-.25”; in data set [5], “.06-.25”; in data set [6], “.06-16”.

As for `CC(C)[C@H](NC(=O)[C@H](Cc1c[nH]c2ccccc12)NC(=O)[C@H](CCCNC(=N)N)NC(=O)[C@H](CCCNC(=N)N)NC(=O)[C@@H](NC(=O)[C@@H](NC(=O)[C@H](CCCNC(=N)N)NC(=O)[C@@H](NC(=O)[C@@H](NC(=O)[C@H](CCCNC(=N)N)NC(=O)[C@H](CCCNC(=N)N)NC(=O)[C@H](Cc1c[nH]c2ccccc12)NC(=O)[C@@H](NC(=O)[C@H](CCCNC(=N)N)NC(=O)[C@H](CCCNC(=N)N)NC(=O)[C@@H](NC(=O)[C@H](CCCNC(=N)N)NC(=O)[C@H](CCCNC(=N)N)NC(=O)[C@@H](NC(=O)[C@H](Cc1c[nH]c2ccccc12)NC(=O)[C@H](CCCNC(=N)N)NC(=O)[C@@H](N)CCCNC(=N)N)C(C)C)C(C)C)C(C)C)C(C)C)C(C)C)C(C)C)C(C)C)C(=O)N[C@@H](CCCNC(=N)N)C(=O)N[C@@H](CCCNC(=N)N)C(=O)O` [WLBU-2, RRWVRRVRRVWRRVVRVVRRWVRR] (H-RRWVRRVRRVWRRVVRVVRRWVRR-OH), in data set [8] (1 mg/mL for 15 minutes, murine and rabbit PJI animal models), the “toxicity to local tissue” value was “non-toxic to local tissue”. Besides, the “local or systemic toxicity” value in data set [8] (therapeutic range of dosing in animal models) is “does not have significant local or systemic toxicity”. For the same compound, the Log reduction is reported as 7.7 in [9]; 3.6 in [10]; 7.7 in data set [11]; 6.7 in data set [12]; 4.0 in data set [13]; 7.7 in data set [14]. Moreover, the Log reduction in data set [15] is 2.9; in data set [16], 6.2 and 5.9. The compound also had a mean log reduction in data set [17] of 6 log. The “range of log reduction” value in data set [17] is listed as 2-7.70 log.

Turning to `C[C@H]1COc2c(N3CCN(C)CC3)c(F)cc3c(=O)c(C(=O)O)cn1c23` [LVX, levofloxacin], the “minimum inhibitory concentration (MIC)” value in data set [1] is “.015-.03”.

`C[C@@H](O)[C@H]1C(=O)N2C(C(=O)O)=C(SCCN=CN)C[C@H]12` [IPM, imipenem]: the “minimum inhibitory concentration (MIC)” value was “.015-.03” in data set [1] and 0.25 in [4].

As to `CC(=O)NC[C@H]1CN(c2ccc(N3CCOCC3)c(F)c2)C(=O)O1` [LZD, linezolid], in [1], the “minimum inhibitory concentration (MIC)” value worked out at 4.
